Test results published in paper PMC10761396, “Evaluation of new alternative methods for the identification of estrogenic, androgenic and steroidogenic effects: a comparative in vitro/in silico study” (Archives of Toxicology, 2023).
≈ marks a conversion by molar mass, not a printed value. Read-outs that look alike come from different tables or passages of the source.

What was measured:
AR [1] = settings: cited from earlier work; for ToxCast Pathway Model (AUC): AR pathway model, ref Kleinstreuer et al (2017) 10.1021/acs.chemrestox.6b00347
ER [2] = system: ER; set-up: method as in US EPA ToxCast; settings: ref US EPA ToxCast, cited from earlier work
ER [3] = assay: ToxCast ER assays and final ToxCast call; settings: for Final "true" call (ToxCast) ER: from active ToxCast assays, cytotoxicity, ToxCast Pathway Model and CERAPP Potency Level
Description: (§1) A rich source of data can be found in the EPA's ToxCast database (US EPA). This contains ED data for ~ 1800 chemicals in more than 700 high-throughput assay endpoints that cover a range of high-level cell responses. The US EPA is running an Endocrine Disruption Screening Program (EDSP), with the aim of prioritising chemicals using high-throughput screening methods and computational toxicology approaches to evaluate thousands of chemicals for ED activities. The OECD framework for ED assessment (OECD [2018]) requires animal testing at higher levels, where relevant in vitro alternatives are missing e.g. for developmental, reproductive, neurological and immune effects. However, such follow-up testing is not possible for the cosmetics industry especially in the EU due to the complete animal testing ban which came into force in March 2013 (EU [2009]). Even for other industries, animal models are not suitable for assessing ED effects due to issues relating to ethics, capacity, speed and relevance (Patisaul et al. [2018]). Therefore, chemicals which cannot be evaluated using in vivo method must be assessed using alternative methods e.g. in silico and in vitro methods listed in Levels 1 and 2 of the framework described in the OECD 150 test guideline (OECD [2018]).
(§2) The performance of different in silico models for ED effects tends to be evaluated on single model for a single effect, such as ER or AR binding, agonism or antagonism (normally by the developer), or a limited number of models using multiple chemicals (Weyrich et al. [2022]). Multi-organisation collaborations have also evaluated multiple models for a specific effect e.g. ER (Mansouri et al. [2016]) and AR (Mansouri et al. [2020]) effects. Therefore, we have conducted a side-by-side comparison of multiple different in silico models covering three pathways in ED, namely ER, AR and aromatase inhibition and compared these with ToxCast-derived final calls, as well as with results from in vitro assays. The efficiency of the in silico models was evaluated as a metric for the ability of the in silico model to generate concrete predictions. […] In vivo data were available for some but not all chemicals; therefore, an evaluation of the performance of the methods was made by comparing the derived overall calls from in silico models with those from the ToxCast database. The final call for each chemical evaluated in the ToxCast assays was made by considering the active-flagged assays and the corresponding cytotoxicity levels, the ToxCast Pathway Model (Browne et al. [2015]) and the CERAPP Potency Level (Mansouri et al. [2016]) for ER effects and the ToxCast Pathway Model (Kleinstreuer et al. [2017]) for AR effects (see Online Resource 1 Supplementary Tables 2, 4 and 6 for the outcome of the ER, AR and aromatase ToxCast assays, additional literature and final calls for each chemical and target).

AR [4] = assay: ToxCast AR assays and final ToxCast call; settings: for Final "true" call (ToxCast): AR effects, from active assays, cytotoxicity and pathway model
Description: as §1, §2

aromatase [5] = assay: ToxCast aromatase assays (TOX21_Aromatase_Inhibition) and final ToxCast call; type: cell-based; settings: for ToxCast result: aromatase overall ToxCast call; for Final "true" call (ToxCast) Aromatase inhibition: from ToxCast assays
Description: as §2
Aromatase represents only one enzyme involved in steroidogenesis (the conversion of androgens to oestrogens); therefore, the aromatase assay detects effects on 17β-oestradiol production only. […] It is a cell-based assay in which MCF-7 cells are incubated with the test chemical for 24 h before measuring aromatase activities indirectly via a luciferase-based reporter endpoint which is dependent on the binding of the oestradiol–ER complex to the oestrogen response element. A decrease in luciferase activity can occur as a result of direct inhibition of aromatase (preventing the production of oestradiol) or by preventing oestradiol from binding to the ER and thus the binding to the oestrogen RE which initiates the production of luciferase (Lui et al. [2008]).

ER [6] = system: ER; set-up: method as in Browne, et al (2015); settings: ref Browne, et al (2015), cited from earlier work; for ToxCast Pathway Model (AUC): as agonist where given, value above 0.1 = significant interaction
aromatase [7] = system: aromatase; set-up: method as in US EPA ToxCast; settings: ref US EPA ToxCast; cited from earlier work
H295R cells = assay: H295R steroidogenesis assay (oestrogen and androgen production); type: cell-based, human; settings: for minimal effective concentration: Homo sapiens, NCI-H295R, 48 h
Procedure: The in vitro H295R Steroidogenesis Assay is based on the human adenocarcinoma cell line, NCI-H295R, in which the human steroidogenesis pathway is fully functional (OECD 2022). The effect of the test chemical on the production of 17β-estradiol and testosterone is measured using ERα CALUX and AR CALUX technology.
The test chemical was tested in two independent assays, each in triplicate.

Solubility = type: physicochemical
AR [8] = system: AR; set-up: method as in ToxCast; settings: ref ToxCast, cited from earlier work; for ToxCast conclusion from assays result: AR sheet; for ToxCast 1: (Active assays), number of positive assays / assays run: ToxCast AR assays
ER [9] = system: ER; set-up: method as in Mansouri et al. 2016; settings: ref Mansouri et al. 2016; cited from earlier work
human (non-selective) ER = assay: ER radioligand ([3H]estradiol) receptor-binding assay; settings: single-dose screening, 10 µM
Procedure: The chemicals were tested for their ability to bind to different targets. […] Chemicals were incubated at 10 µM with cells overexpressing ER or AR for 24 h at 4°C, after which, the binding of the radiolabeled ligand ([^3H]estradiol for ER and [^3H]methyltrienolone for AR) was measured by liquid scintillation counting. An increase or decrease higher than 50% were considered to represent significant effects. Four chemicals were tested in additional incubations at several concentrations up to the maximum soluble concentration for IC50 or EC50 determination for the associated target. Receptor binding was calculated as a % inhibition of the binding of a radioactively labeled ligand specific for each target.
Each test chemical was tested in a single assay in duplicate.

AR [10] = system: AR; set-up: method as in Park et al. [2021]; settings: ref Park et al. [2021]; cited from earlier work
[11] = molecular target: T1, human recombinant CYP19A1 (Homo sapiens, UniProt P11511); assay: Recombinant enzyme aromatase activity inhibition assay; type: biochemical; settings: follow-up dose–response assay
T1 sequence (P11511 1-503): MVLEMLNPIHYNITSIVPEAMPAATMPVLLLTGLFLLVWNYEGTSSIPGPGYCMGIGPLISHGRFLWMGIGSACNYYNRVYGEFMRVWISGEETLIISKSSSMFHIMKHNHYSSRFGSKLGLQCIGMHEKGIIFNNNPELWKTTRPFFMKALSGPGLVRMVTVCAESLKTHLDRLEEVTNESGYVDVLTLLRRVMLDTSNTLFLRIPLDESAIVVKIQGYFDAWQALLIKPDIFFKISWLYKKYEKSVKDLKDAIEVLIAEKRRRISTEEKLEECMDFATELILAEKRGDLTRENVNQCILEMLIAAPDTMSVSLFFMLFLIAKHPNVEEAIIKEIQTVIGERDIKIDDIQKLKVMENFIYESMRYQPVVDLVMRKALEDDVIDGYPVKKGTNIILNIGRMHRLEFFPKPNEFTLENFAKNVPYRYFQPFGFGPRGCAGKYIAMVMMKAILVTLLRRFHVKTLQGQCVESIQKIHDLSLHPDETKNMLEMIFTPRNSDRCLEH
Procedure: An aromatase inhibition assay was also included in the in vitro assay panel. This enzyme – otherwise known as CYP19A1 - is responsible for converting androgens into estrogens (Blakemore and Naftolin 2016; Bulun 2014); therefore, chemicals that inhibit aromatase activity can lead to reduced estrogen production, which can affect reproductive and developmental processes (Kragie 2002; Tiboni and Ponzano 2016).
The metabolite, estradiol, was measured by time-resolved fluorescence according to the method described previously (Ji et al. 2014). Enzyme inhibition was calculated as a % inhibition of control enzyme activity.

MCF-7 cells = settings: cited from earlier work
[12] = UPITT_HCI_U2OS_AR_TIF2_Nucleoli_Antagonist

Compound	ToxCast Pathway Model (AUC) (AR [1])	ToxCast 1: (Active assays), positive/total ER assays (ER [2])	ToxCast conclusion from assays result (ER [2])	Final "true" call (ToxCast) ER (ER [3])	Final "true" call (ToxCast) (AR [4])	ToxCast result (aromatase [5])	Final "true" call (ToxCast) Aromatase inhibition (aromatase [5])	ToxCast Pathway Model (AUC) (ER [6])	ToxCast Pathway Model interaction (ER [6])	ToxCast (Aromatase assays), positive/total (aromatase [7])	ToxCast conclusion from assays result (AR [8])	ToxCast 1: (Active assays), number of positive assays / assays run (AR [8])	efficacy (assays Comments) (AR [8]; [12])	CERAPP Potency Level (ER [9])	other results
CCCCOC(=O)c1ccccc1C(=O)OCc1ccccc1 [BBP, benzyl butyl phthalate]	AUC = 0, then there is no significant interaction.	14/21 positive	Endocrine Disruption Potential.Significant Estrogen Receptor activity seen	Positive for agonism	Inconclusive	Negative	Negative	0.18	significant interaction	0/2 positive	Endocrine Disruption Potential.Significant Estrogen Receptor activity seen	2/14 positive	Boarderline: less than 50% efficacy (48.9%)	Very weak antagonist	ToxCast result (ER) (ER [3]; overall call from ToxCast data (Supplementary Table 2)): ER agonist only; minimal effective concentration (H295R cells; read-out: Steroidogenesis Androgenicity LEC): > 10 µM; minimal effective concentration (H295R cells; read-out: Steroidogenesis Estrogenicity LEC): > 10 µM; solubility (Solubility): ~10 µM (≈ 3.12 µg/mL); efficacy (assays Comments) (AR [8]; TOX21_AR_LUC_MDAKB2_Antagonist_0.5nM_R1881): Boarderline: less than 50% efficacy (38.4%)
isoeugenol	AUC = = 0, then there is no significant interaction.	9/19 positive	Endocrine Disruption Potential.Significant Estrogen Receptor activity seen	Inconclusive	Negative	Negative	Negative	0.0124	no significant interaction	0/2 positive	Endocrine Disruption Potential.Significant Estrogen Receptor activity seen	1/14 positive	Boarderline: less than 50% efficacy (48.8%)	Weak agonist/ antagonist	ToxCast Pathway model, interaction with the AR (AR [1]; ref Kleinstreuer et al. [2017]): insignificant; ToxCast 1: (Comments), efficacy (ER [2]; borderline: less than 50% efficacy): Boarderline: less than 50% efficacy; ToxCast result (AR [4]; AR overall call from Supplementary Table 4): Negative; Final "true" call (ToxCast) AR (AR [4]; from ToxCast assays and ToxCast Pathway Model): Negative; inhibition of control specific binding to the ER (human (non-selective) ER): less than -25%; AR antagonism and impact of metabolism (AR [10]): exhibits AR antagonism which is decreased by metabolism; aromatase inhibition outcome [11]: positive; LEC, oestrogen production (H295R cells; increase): 10 µM; ToxCast 1: (assays Comments) (AR [8]; [12]): Only highest concentration above the baseline
C=CCc1ccc(O)c(OC)c1 [eugenol]	–	–	–	–	–	–	–	–	–	–	–	–	–	–	effect on MCF-7 cells (MCF-7 cells): cytotoxicity
